Measured values published in patent US20260132123A1, “ABAD INHIBITOR COMPOUNDS” (UNIVERSITY COURT OF THE UNIVERSITY OF ST ANDREWS, priority 2021, published 2026).
pEC50: −log10 of the molar value.

Key:
[1] = target: T1, 17β-HSD10 (Homo sapiens, UniProt Q99714); assay: 17β-HSD10 (ABAD) enzyme inhibition assay, NADH oxidation read at 340 nm (primary screen and dose response); format: biochemical; details: for IC50: 17β-HSD10 dose response / inhibition assay, read-out: 17β-HSD10 pIC50 (converted); for pEC50 / Max. Effect (%) / Hill Slope / Max. Fit / Min. Fit: recombinant 17βHSD10 enzyme assay; for Hill Slope / Max. Fit / Min. Fit: curve fit
T1 construct: Histev (histidine tag with TEV site) (N, cleaved yes); made in house; host or cells: E. coli BL21-CodonPlus
T1 sequence (Q99714 1-261): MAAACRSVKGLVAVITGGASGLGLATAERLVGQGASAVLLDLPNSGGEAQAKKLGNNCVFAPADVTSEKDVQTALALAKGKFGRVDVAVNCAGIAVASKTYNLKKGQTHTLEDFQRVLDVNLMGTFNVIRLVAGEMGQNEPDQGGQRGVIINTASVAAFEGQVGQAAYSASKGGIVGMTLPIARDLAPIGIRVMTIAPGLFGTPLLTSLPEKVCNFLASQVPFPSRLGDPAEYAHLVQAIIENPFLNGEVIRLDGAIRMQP
Outline: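 Tag-cleaved recombinant human 17β-HSD10 (2.5 nM) preincubated 15 min with compound in Tris pH 7.4, NaCl, DTT, Tween, BSA (catalase in some runs), then 100 μM acetoacetyl-CoA and NADH added. NADH oxidation by A340 fall: 35 min endpoint for screening at 10 μM; continuous 45 min for dose response.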

[2] = test system: mtsABAD HEK293 cells; assay: Alamar Blue cell viability assay; format: cell-based, human; details: 50 μM compound
Procedure: Cell viability was assessed via fluorescence change using the commercially available Alamar Blue from ThermoFisher. HEK293 cells overexpressing mts17β-HSD10 were cultured in phenol-red free media (10% FBS, 1 mM sodium pyruvate, 100 units penicillin, 0.1 mg/mL streptomycin and 2 mM L-glutamine) and seeded at a density of 10,000 cells per well (100 μL, 96 well plates). […] Treated cells were then incubated at 37° C. and CO2 (5%) for 24 hours before the assay was performed as per the manufacturer's instructions. Fluorescence was measured at 530 nm excitation and 590 nm emission using a SpectraMaxM2e spectrophotometer.

[3] = test system: mtsABAD HEK293 cells; assay: Lactate dehydrogenase (LDH) cytotoxicity assay; format: cell-based, human; details: 50 μM compound
Procedure: Cell cytotoxicity was assessed via the measurement of lactate dehydrogenase leakage into the culture medium using a commercially available kit from Pierce (Thermo Scientific cat no. 88953). This was carried out in accordance with the kit guidelines, with the activity of Lactate Dehydrogenase (LDH) being calculated from the change in absorbance at […] as NADH is reduced. HEK293 cells overexpressing mts17β-HSD10 were cultured in phenol-red free media (10% fetal bovine serum (FBS), 1 mM sodium pyruvate, 100 units penicillin, 0.1 mg/mL streptomycin and 2 mM L-glutamine) and seeded at a density of 10,000 cells per well (100 μL, 96 well plates). […] Treated cells were incubated at 37° C. and CO2 (5%) for 24 hours before the LDH assay was performed as per the manufacturer's instructions. Spontaneous control (water) and maximum control (lysis buffer) used in accordance with the kit guide. Absorbance was measured at 490 nm and 680 nm using a SpectraMaxM2e spectrophotometer. The measured LDH activity was used to calculate % cytotoxicity using the following equation: […]

## COc1ccc(-c2ccccc2[C@@H]2CCCN2C(=O)c2sccc2C)cn1 (single isomer, unassigned) [ESC1002161]
[1]
  IC50: > 20 µM
  pEC50: < 4.70
  Max. Effect (%): 7%
[1]; Table 3, equals Max. Effect (%) of Table 6
  figure in brackets after the pIC50 bound: 7
[2]
  Alamar Blue % Viability (50 μM Dose): 92.566%
[3]
  LDH % Toxicity (50 μM Dose): 4.783%

## COc1ccc(-c2ccccc2[C@H]2CCCN2C(=O)c2sccc2C)cn1 (single isomer, unassigned) [ESC1002162]
[1]
  IC50: 0.49 µM
  pEC50: 6.31
  Max. Effect (%): 98%
  Hill Slope: 1
  Max. Fit: 99
  Min. Fit: 0
[2]
  Alamar Blue % Viability (50 μM Dose): 83.498%
[3]
  LDH % Toxicity (50 μM Dose): 6.843%

## COc1ccc(-c2ccccc2[C@H]2CCCN2C(=O)c2sccc2C)cc1 (single isomer, unassigned) [ESC1002331]
[2]
  Alamar Blue % Viability (50 μM Dose): 88.56%
[3]
  LDH % Toxicity (50 μM Dose): 5.88%

## COc1ccc(-c2ccccc2[C@@H]2CCCN2C(=O)c2sccc2C)cc1 (single isomer, unassigned) [ESC1002332]
[1]
  pEC50: 6.78
  Max. Effect (%): 99%
  Hill Slope: 1
  Max. Fit: 100
  Min. Fit: 0
[2]
  Alamar Blue % Viability (50 μM Dose): 87.68%
[3]
  LDH % Toxicity (50 μM Dose): 3.52%

## COc1ccc(-c2ccccc2[C@H]2CCCN2C(=O)c2ccccc2F)cn1 (stereo in doubt) [ESC1002119, (2-fluorophenyl)-[2-[2-(6-methoxy-3-pyridyl)phenyl]pyrrolidin-1-yl]methanone]
[1]
  pEC50: 5.38
  Max. Effect (%): 64%
  Hill Slope: 1.3
  Max. Fit: 57
  Min. Fit: 0
[2]
  Alamar Blue % Viability (50 μM Dose): 79.180%
[3]
  LDH % Toxicity (50 μM Dose): 4.780%

## COc1ccc(-c2ccccc2[C@H]2CCCN2C(=O)c2ccc(C)cc2)cn1 (stereo in doubt) [ESC1002120, [2-[2-(6-methoxy-3-pyridyl)phenyl]pyrrolidin-1-yl]-(p-tolyl)methanone]
[1]
  pEC50: < 4.70
  Max. Effect (%): 13%
[2]
  Alamar Blue % Viability (50 μM Dose): 81.743%
[3]
  LDH % Toxicity (50 μM Dose): 4.611%

## COc1ccc(-c2ccccc2[C@H]2CCCN2C(=O)c2sccc2C)cc1 [ESC1002089]
[1]
  Hill Slope: 1.1
  Max. Fit: 98
  Min. Fit: 0
[1]; relative to the parent compound of the sentence
  fold improvement in activity / potency: under 3 fold
[2]
  Alamar Blue % Viability (50 μM Dose): 83.064%
[3]
  LDH % Toxicity (50 μM Dose): 5.398%

## Cc1ccsc1C(=O)N1CCC[C@@H]1c1ccccc1-c1cccnc1 [ESC1002090]
[1]
  pEC50: 5.94
  Max. Effect (%): 94%
  Hill Slope: 1.1
  Max. Fit: 97
  Min. Fit: 0
[2]
  Alamar Blue % Viability (50 μM Dose): 102.627%
[3]
  LDH % Toxicity (50 μM Dose): 5.162%

## Cc1ccsc1C(=O)N1CCC[C@@H]1c1ccccc1-c1ccn[nH]1 [ESC1002091]
[1]
  pEC50: 5.50
  Max. Effect (%): 84%
  Hill Slope: 1.2
  Max. Fit: 93
[2]
  Alamar Blue % Viability (50 μM Dose): 84.920%
[3]
  LDH % Toxicity (50 μM Dose): 5.395%

## Cc1ccsc1C(=O)N1CCC[C@@H]1c1ccccc1-c1cn[nH]c1 [ESC1002092]
[1]
  pEC50: 5.91
  Max. Effect (%): 93%
  Hill Slope: 1
  Max. Fit: 98
  Min. Fit: 0
[2]
  Alamar Blue % Viability (50 μM Dose): 80.606%
[3]
  LDH % Toxicity (50 μM Dose): 4.240%

## COCCn1cnc(CN(C)c2cccc(NC(=O)c3ccccc3F)c2)c1 [ESC1002163]
[1]
  pEC50: < 4.70
  Max. Effect (%): 0%
[2]
  Alamar Blue % Viability (50 μM Dose): 78.775%
[3]
  LDH % Toxicity (50 μM Dose): 4.975%

## CC(C)CN(C(=O)c1ccccc1F)c1cccc(N(C)Cc2cn[nH]c2)c1 [ESC1002205-02]
[2]
  Alamar Blue % Viability (50 μM Dose): 89.638%
[3]
  LDH % Toxicity (50 μM Dose): 5.243%

## O=C(c1ncn[nH]1)N1CCC[C@H]1c1ccccc1 [S1−T3, 5-{[(2S)-2-phenylpyrrolidin-1-yl]carbonyl}-1H-1,2,4-triazole]
[1]
  pEC50: < 4.70
  Max. Effect (%): 7.1%

## O=C(c1ccon1)N1CCC[C@H]1c1ccccc1 [S1−T5, 3-{[(2S)-2-phenylpyrrolidin-1-yl]carbonyl}-1,2-oxazole]
[1]
  pEC50: < 4.70
  Max. Effect (%): 27.5%

## O=C(c1nc(Br)no1)N1CCC[C@H]1c1ccccc1 [S1−T6]
[1]
  pEC50: < 4.70
  Max. Effect (%): 20.5%

## O=C(c1ncco1)N1CCC[C@H]1c1ccccc1 [S1−T9, 2-{[(2S)-2-phenylpyrrolidin-1-yl]carbonyl}-1,3-oxazole]
[1]
  pEC50: < 4.70
  Max. Effect (%): 26.6%

## O=C(c1cocn1)N1CCC[C@H]1c1ccccc1 [S1−T10, 4-{[(2S)-2-phenylpyrrolidin-1-yl]carbonyl}-1,3-oxazole]
[1]
  pEC50: < 4.70
  Max. Effect (%): 20.5%

## O=C(c1cccnc1)N1CCC[C@H]1c1ccccc1 [S1−T12, 3-{[(2S)-2-phenylpyrrolidin-1-yl]carbonyl}pyridine]
[1]
  pEC50: < 4.70
  Max. Effect (%): 9.1%

## O=C(c1ccncc1)N1CCC[C@H]1c1ccccc1 [S1−T13, 4-{[(2S)-2-phenylpyrrolidin-1-yl]carbonyl}pyridine]
[1]
  pEC50: < 4.70
  Max. Effect (%): 22.3%

## O=C(c1[nH]ncc1Cl)N1CCC[C@H]1c1ccccc1 [S1−T14, 4-chloro-5-{[(2S)-2-phenylpyrrolidin-1-yl]carbonyl}-1H-pyrazole]
[1]
  pEC50: < 4.70
  Max. Effect (%): 20.8%

## O=C(c1[nH]ncc1Cl)N1CCC[C@H]1c1ccccn1 [S1−T17, 2-[(2S)-1-[(4-chloro-1H-pyrazol-5-yl)carbonyl]pyrrolidin-2-yl]pyridine]
[1]
  pEC50: < 4.70
  Max. Effect (%): 17.5%

## CCN(C(=O)c1ccccc1F)c1cccc2c1ncc(=O)n2Cc1cnc[nH]1 [S2−T2, N-ethyl-2-fluoro-N-[1-(1H-imidazol-5-ylmethyl)-2-oxo-1,2 dihydroquinoxalin-5-yl]benzamide]
[1]
  pEC50: < 4.70
  Max. Effect (%): 4.8%

## CCN(C(=O)c1ccccn1)c1cccc(N(C)Cc2cnc[nH]2)c1 [S2−T3, N-ethyl-N-[3-[1H-imidazol-5-ylmethyl(methyl)amino]phenyl]pyridine-2-carboxamide]
[1]
  pEC50: < 4.70
  Max. Effect (%): 20.3%

## CCN(C(=O)c1cccc(F)c1)c1cccc(N(C)Cc2cnc[nH]2)c1 [S2−T5, N-ethyl-3-fluoro-N-[3-[1H-imidazol-5-ylmethyl(methyl)amino]phenyl]benzamide]
[1]
  pEC50: < 4.70
  Max. Effect (%): 18.4%

## CCN(C(=O)C1CCOCC1)c1cccc(N(C)Cc2cnc[nH]2)c1 [S2−T6, N-ethyl-N-[3-[1H-imidazol-5-ylmethyl(methyl)amino]phenyl]tetrahydropyran-4-carboxamide]
[1]
  pEC50: < 4.70
  Max. Effect (%): 18.4%

## CCN(C(=O)C1CCCCN1C)c1cccc(N(C)Cc2cnc[nH]2)c1 (stereo not shown) [S2−T7, N-ethyl-N-[3-[1H-imidazol-5-ylmethyl(methyl)amino]phenyl]-1-methyl-piperidine-2-carboxamide]
[1]
  pEC50: < 4.70
  Max. Effect (%): 27.9%
